From PMC12693701, “Glucosinolate-Derived Metabolites from Barbarea vulgaris (Brassicaceae): Evaluation of Antimicrobial, Antioxidant, and Anti-Inflammatory Potentials” (Molecules, 2025)
≈ marks a conversion by molar mass, not a printed value.

Assays:
[1] = test system: B. subtilis ATCC 6633; assay: Microdilution MIC/MMC with resazurin; format: cell-based, Bacillus subtilis; conditions: B. subtilis ATCC 6633, compounds 1–8; for MIC: Bacillus subtilis, ATCC6633, read-out: MIC
Experimental: (§1) The antimicrobial activity was evaluated against 15 microorganisms. This included 11 bacterial strains: four standard strains (Staphylococcus aureus ATCC 25923, Bacillus subtilis ATCC 6633, Bacillus pumilus NCTC 8241, and Escherichia coli ATCC 25922) and six clinical or environmental isolates (Staphylococcus aureus, Escherichia coli, Bacillus cereus, Proteus mirabilis, Salmonella enterica, and Klebsiella pneumoniae). One probiotic strain, Bifidobacterium animalis subsp. lactis was tested. In addition, four fungal strains, Candida albicans ATCC 10231, Trichoderma viride ATCC 13233, Aspergillus flavus ATCC 9170, and Fusarium solani ATCC 11712 were tested. The bacterial strains were kept in glycerol stock at −80 °C and the fungal strains in paraffin oil stock at 4 °C.
(§2) Bacterial and yeast suspensions were prepared using the direct colony method, as previously described by Andrews. The turbidity of the initial suspensions was adjusted to match the 0.5 McFarland standard using a densitometer (Biosan, Riga, Latvia), corresponding to approximately 10^8 colony-forming units (CFU)/mL for bacterial cells and 10^6 CFU/mL for yeast cells. Subsequently, 1:100 dilutions of the initial suspensions were prepared in sterile 0.85% saline. Fungal spore suspensions were obtained by gently harvesting spores from agar slopes containing mature mycelial growth. The collected spore suspensions were then diluted 1:1000 in sterile 0.85% saline prior to use.
(§3) Antimicrobial activity was evaluated by determining the minimum inhibitory concentration (MIC) and minimum microbicidal concentration (MMC) using the microdilution plate method with resazurin as an indicator [28]. In the 96-well plates, 100 μL of Mueller–Hinton broth (Torlak, Belgrade, Serbia) for bacterial testing and Sabouraud broth (Torlak, Belgrade, Serbia) for fungal testing were dispensed into each well. The compounds under investigation were initially dissolved in a 10% dimethyl sulfoxide (DMSO) solution, followed by dilution in sterile distilled water, resulting in a working compound solution containing 1% DMSO. A 100 μL aliquot of the stock solution of the tested compound was added to the first row, and twofold serial dilutions were then carried out using a multichannel pipette. The resulting concentration range was from 5 to 0.039 mg/mL. The inoculated microtiter plates were incubated at 37 °C for 24 h for bacteria, at 28 °C for 48 h for yeasts, and at 28 °C for 72 h for molds.
(§4) Each test also included growth control and sterility control. All tests were conducted in duplicate. MIC was defined as the lowest concentration of tested compounds that prevented resazurin color change from blue to pink. For molds, MIC values of the tested compound were determined as the lowest concentration that inhibited visible mycelia growth. MMC was determined by inoculation of the nutrient agar medium by plating […] of samples from wells, where no indicator color change was recorded. At the end of the incubation period, the lowest concentration with no growth (no colony) was defined as MMC.
(§5) Doxycycline, ampicillin and amphotericin B (- Sigma-Aldrich, St. Louis, MO, USA) and ketoconazole (Hemofarm A.D., Vršac, Serbia) were dissolved in a nutrient liquid medium. Doxycycline is a broad-spectrum antibiotic effective against both aerobic and anaerobic Gram-positive and Gram-negative bacteria. Ampicillin, a beta-lactam antibiotic, primarily targets Gram-positive bacteria but also some Gram-negative strains. Amphotericin B is an antifungal drug often used for serious systemic fungal infections and is one of the effective treatments for fungal infections caused by Aspergillus sp. Ketoconazole is an antifungal agent used to inhibit the growth of Candida species.

[2] = test system: E. coli ATCC 25922; assay: Microdilution MIC/MMC with resazurin; format: cell-based, Escherichia coli; conditions: E. coli ATCC 25922, compounds 1–8; for MIC: Escherichia coli, ATCC25922, read-out: MIC
Experimental: as §1, §2, §3, §4, §5

[3] = test system: E. coli; assay: Microdilution MIC/MMC with resazurin; format: cell-based, Escherichia coli; conditions: E. coli isolate, compounds 1–8; for MIC: Escherichia coli, read-out: MIC
Experimental: as §1, §2, §3, §4, §5

[4] = test system: C. albicans ATCC 10231; assay: Microdilution MIC/MMC with resazurin; format: cell-based, Candida albicans; conditions: C. albicans ATCC 10231, compounds 1–8; for MIC: Candida albicans, ATCC10231, read-out: MIC
Experimental: as §1, §2, §3, §4, §5

[5] = test system: F. solani ATCC 11712; assay: Microdilution MIC/MMC; format: cell-based, Fusarium solani; conditions: F. solani ATCC 11712, compounds 1–8; for MIC: Fusarium solani, ATCC11712, read-out: MIC
Experimental: as §1, §2, §3, §4, §5

[6] = biological target: T1, Type I-B soybean lipoxygenase (Glycine max, UniProt P08170); assay: LOX inhibition assay; format: biochemical; conditions: mean ± SD; for inhibition at 100 µM: read-out: Percentage of LOX Inhibition
T1 sequence (P08170 1-839): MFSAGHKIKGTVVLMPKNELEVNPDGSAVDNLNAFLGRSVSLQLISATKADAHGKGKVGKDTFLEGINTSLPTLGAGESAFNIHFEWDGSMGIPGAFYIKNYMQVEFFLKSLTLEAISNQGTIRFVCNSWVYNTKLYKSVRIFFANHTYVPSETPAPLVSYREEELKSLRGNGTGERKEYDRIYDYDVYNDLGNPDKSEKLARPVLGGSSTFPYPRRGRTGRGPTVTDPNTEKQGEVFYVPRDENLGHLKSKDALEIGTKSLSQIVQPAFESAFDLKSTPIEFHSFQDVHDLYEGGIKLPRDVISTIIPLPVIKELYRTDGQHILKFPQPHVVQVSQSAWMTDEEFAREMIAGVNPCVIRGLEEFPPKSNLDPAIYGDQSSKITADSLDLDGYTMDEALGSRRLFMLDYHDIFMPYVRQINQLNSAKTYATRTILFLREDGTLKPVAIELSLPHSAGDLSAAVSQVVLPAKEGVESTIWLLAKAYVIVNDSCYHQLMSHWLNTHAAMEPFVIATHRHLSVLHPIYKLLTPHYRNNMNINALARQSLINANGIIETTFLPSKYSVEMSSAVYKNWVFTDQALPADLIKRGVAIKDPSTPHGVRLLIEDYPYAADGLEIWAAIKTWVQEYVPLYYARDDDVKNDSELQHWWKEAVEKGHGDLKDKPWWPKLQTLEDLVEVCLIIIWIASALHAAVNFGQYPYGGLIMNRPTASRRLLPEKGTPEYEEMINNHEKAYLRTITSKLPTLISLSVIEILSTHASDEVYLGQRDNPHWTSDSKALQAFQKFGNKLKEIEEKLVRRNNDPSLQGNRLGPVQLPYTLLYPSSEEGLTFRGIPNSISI
Experimental: Type I-B soybean lipoxygenase is a commonly used enzyme for studying the anti-inflammatory properties of various compounds [19]. The lipoxygenase (LOX) inhibition assay measures the enzyme’s ability to convert sodium linoleate to 13-hydroperoxylinoleic acid. The inhibition of the enzyme by the investigated compounds was determined by measuring the absorbance at 234 nm for each prepared sample. Specifically, the test compound, Tris buffer, an enzyme solution (5 × 10^3 units/mL in saline), and sodium linoleate (3 mM in Tris buffer, pH 9), were added to a UV cuvette, and the absorbance was recorded. […] All measurements were performed in triplicate.

Compound | MMC [1] | MIC [1] | MMC [2] | MIC [2] | MMC [3] | MIC [3] | MMC [4] | MIC [4] | MMC [5] | MIC [5] | inhibition at 100 µM [6] | IC50 [6]
S=C1NCC(c2ccccc2)O1 (racemic) [Compound 4, rac-5-Phenyl-1,3-oxazolidine-2-thione] | 5 mg/mL | 2500 µg/mL (≈ 13.9 mM) | 5 mg/mL | 2500 µg/mL (≈ 13.9 mM) | 5 mg/mL | 2500 µg/mL (≈ 13.9 mM) | 5 mg/mL | 5000 µg/mL (≈ 27.9 mM) | 3.75 mg/mL | 2500 µg/mL (≈ 13.9 mM) | 90.5 ± 0.1% | 61.6 ± 0.6 µM
CSC(=S)NCCc1ccccc1 [Compound 1, Methyl phenethylcarbamodithioate] | >5 mg/mL | 2500 µg/mL (≈ 11.8 mM) | 1.25 mg/mL | 1250 µg/mL (≈ 5.91 mM) | 5 mg/mL | 2500 µg/mL (≈ 11.8 mM) | >5 mg/mL | 1250 µg/mL (≈ 5.91 mM) | 1.25 mg/mL | 1250 µg/mL (≈ 5.91 mM) | 47.5 ± 1.5% | 125.5 ± 0.4 µM
CSC(=S)NCCc1ccc(O)cc1 [Compound 2, methyl-4-hydroxyphenylethyl dithiocarbamate] | 1.25 mg/mL | 78 µg/mL (≈ 0.343 mM) | 0.312 mg/mL | 312 µg/mL (≈ 1.37 mM) | 0.312 mg/mL | 312 µg/mL (≈ 1.37 mM) | >5 mg/mL | 2500 µg/mL (≈ 11 mM) | 0.234 mg/mL | 156 µg/mL (≈ 0.686 mM) | 55.5 ± 0.1% | 97.4 ± 1.3 µM
O=C(O)C1CSC(=S)N1 (centres unmarked) [Compound 3, 2-Thioxothiazolidine-4-carboxylic Acid] | 5 mg/mL | 2500 µg/mL (≈ 15.3 mM) | 1.25 mg/mL | 625 µg/mL (≈ 3.83 mM) | 5 mg/mL | 1250 µg/mL (≈ 7.66 mM) | 1.25 mg/mL | 312 µg/mL (≈ 1.91 mM) | 0.625 mg/mL | 625 µg/mL (≈ 3.83 mM) | 23.8 ± 0.8% | –
